Like-named read-outs stand apart in the source and are kept apart here. Marks after values point to notes of the source that are not given here.
Assays:
[1] = test system: SH-SP) rats; conditions: cited from earlier work
[2] = test system: glutamate-mediated neurotoxicity; conditions: cited from earlier work
[3] = test system: Bcl-XL; conditions: 1 fg/ml to 100 fg/ml; cited from earlier work
[4] = test system: lipid peroxides; conditions: cited from earlier work
[5] = in vivo; cited from earlier work
[6] = test system: rats; conditions: rat, in vivo
From the text: It has also been reported that no effects of intracerebroventricular administration of ginsenoside Rb1 on brain temperature, cerebral blood flow and blood pressure are observed (Lim J.-H. et al. Neurosci. Res., 28, 191-200, 1997; Zhang B. et al., J. Stroke Cerebrovasc. Dis., 7, 1-9, 1998).

[7] = test system: cultured nerve cells; conditions: 1 - 100 fg/ml in culture medium; cited from earlier work
[8] = test system: rats; conditions: rat, in vivo; cited from earlier work
[9] = test system: normal cultured nerve cells or neurons; conditions: cited from earlier work
[10] = test system: Wistar rats
Protocol: We used Wistar rats, (weighing about 300 g), which were loaded with 20 g of compression to the lower thoracic cord for 20 minutes, as an animal model for spinal cord injuries. The rats were anesthetized by inhalation of halothane in a mixture of nitrous oxide and oxygen and were loaded with 20 g of compression to the lower thoracic cord for 20 minutes. More than 30 minutes later, ginsenoside Rb1 dissolved in physiological saline was infused once into the left femoral vein (12 µg or 60 µg). Subsequently continuous intravenous administration of ginsenoside Rb1 was performed for 7 days by using an Alza osmotic minipump (12µg/day or 60µg/day). Control animals' and sham-operated animals were administered with the same amount of physiological saline (vehicle). The open field locomotor scores [Basso, Bettie and Bresnakan (BBB) scores] were measured before the loading of spinal cord injury, on the day of spinal cord injury, and from the 1st day to the 7th day after spinal cord injury in order to determine an index of motor functions (Basso D.M. et al., J. Neurotrauma, 13, 343-359, 1996). […] The rats were anesthetized with inhalation of halothane in a mixture of nitrous oxide and oxygen and were loaded with 20 g of compression to the lower thoracic cord for 20 minutes. More than 30 minutes later, ginsenoside Rb1 dissolved in physiological saline was injected once into the left femoral vein (12µg or 60µg), thereafter continuous intravenous administration of ginsenoside Rb1 was performed for 7 days by using an Alza osmotic minipump (12µg/day or 60µg/day). Control animals and sham-operated animals were administered with the same amount of physiological saline (vehicle). The open field locomotor scores [Basso, Bettie and Bresnakan (BBB) scores] were measured before loading spinal cord injury, on the day of spinal cord injury and from the 1st day to the 7th day after the spinal cord injury for use as an index of motor functions (Basso D.M. et al., J. Neurotrauma, 13, 343-359, 1996).

[11] = test system: SH-SP rats; assay: Ratio of cerebrocortical infarction after MCA permanent occlusion, intravenous infusion; type: in vivo
Protocol: (§1) First, we examined the actions of intravenous infusion of ginsenoside Rb1. For this purpose, for example, male SH-SP rats, weighing 250 - 300 g at the age of 12-13 weeks were used. The animals were bred in an air-conditioned room with a 12:12 hour light-dark cycle, and water and feeds were supplied ad libitum. The cortical branch of the left middle cerebral artery (MCA) was coagulated and cut under inhalation anesthesia.
After the water maze tests at the 4th week, the SH-SP rats were anesthetized with chloral hydrate, and they were perfused and fixed transcardially with 0.1 mole phosphate buffer containing 4% paraformaldehyde. The brains were dissected out and cerebrocortical infarcted areas were photographed. Areas of the left cerebral hemispheres and the left cerebrocortical infarct lesions were measured on the photographs by using an image analysis device. The left cerebrocortical infarcted areas were divided by the left cerebral hemispheric areas to calculate ratios of the cerebrocortical infarction (%).
Male SH-SP rats, at the age of 12-13 weeks, (stroke-prone spontaneously hypertensive rat: weighing 250 - 300 g), were used. Animals were housed in an air-conditioned room furnished with a 12:12 hour light-dark cycle, and water and feeds were supplied ad libitum. The mean blood pressure of the animals was 203±6.9 mmHg. The following experiments were conducted in accordance with the Guide for Animal Experimentation at Ehime University School of Medicine. The cortical branch of the left middle cerebral artery (MCA) of SH-SP rats were coagulated and cut, while their rectal temperature was maintained at 37±0.2°C under inhalation anesthesia. […]
After termination of the water maze tests at the 4th week, the SH-SP rats were anesthetized with chloral hydrate, and they were perfused and fixed transcardially with 0.1 mole phosphate buffer containing 4% paraformaldehyde. […] Areas of the left cerebral hemispheres and the left cerebrocortical infarct lesions were measured on the photographs by using an image analysis device. […]

[12] = test system: SH-SP rats; assay: Secondary degeneration of the thalamus: thalamic area ratio and nerve cell count in the VP thalamic nucleus; type: in vivo; conditions: mean ± SE; for ratio of area (%), left thalamic area to right thalamic area: ischemic side/intact side × 100, p < 0.05; for count of nerve cells: per 0.099 mm^2 of the ventral posterior nucleus of the thalamus, p < 0.01
Protocol: Further, paraffin sections prepared from brain samples at the level 3.6 mm posterior to bregma were subjected to Nissl staining, and the ratio of the left thalamic area to the right thalamic area (ischemic side/intact side × 100) at the same level was measured. […] In addition, we have investigated the histological patterns of the ventral posterior nucleus of the thalamus (VP thalamic nucleus) which has reciprocal synaptic connections (fiber connections) with the ischemic core of the cerebral cortex. […] […] Data are represented as mean ± SE. Statistical analyses were conducted by Mann-Whitney U-test. In Table 2, *: p < 0.05, **: p < 0.01.

[13] = test system: SH-SP rats; assay: Ratio of cerebrovascular area in the non-infarcted ischemic penumbra of the parietal lobe; type: in vivo; conditions: for ischemic side (%), ratio of the cerebrovascular area: non-infarcted ischemic penumbra; for ischemic side (%), ratio of the cerebrovascular area / intact side (%), ratio of the cerebrovascular area: mean ± SE, N = 5; for intact side (%), ratio of the cerebrovascular area: per 1.27 mm^2
From the text: Next, we prepared paraffin sections, 5 µm thickness, obtained from brain samples at the level about 2.8 mm posterior to the bregma. Then, we measured the cerebrovascular area per 1.27 mm^2 of the non-infarcted ischemic penumbra in the parietal lobe. This was done for each of the cerebral hemisphere of a group to which ginsenoside Rb1 had been administered intravenously (i.e. the brain tissues had been rescued by administration of ginsenoside Rb1) (Fig. 5). Four sheets of differential interference contrast micrograph were used for measurement (Fig. 6), and the ratio of the cerebrovascular area was calculated (Table 1).
The isolated brain was embedded in paraffin, and paraffin sections, 5µm thick, at the level approximately 2.8 mm posterior to bregma including the cerebrocortical infarct lesion were prepared. Then, we measured the cerebrovascular area per 1.27 mm^2 of the ischemic penumbra rescued by intravenous administration of ginsenoside Rb1. This was done for each of the cerebral hemispheres of the groups to which ginsenoside Rb1 had been administered intravenously (i.e. the brain tissues had been rescued by administering ginsenoside Rb1) (Fig. 5). Four sheets of differential interference contrast micrograph were used for measurement (Fig. 6), and the ratio of the cerebrovascular area was calculated (Table 1). The ratio of cerebrovascular area was also measured in the control hemisphere (intact side).
Fig. 5 is a drawing showing the region for measurement of blood vessel area in the non-infarcted ischemic penumbra of the parietal lobe in a 5µm thick section of the brain. In Fig. 5, the part enclosed with a rectangle is the region for measurement of blood vessel area: cerebrocortical layers II - IV of the parietal lobe; the part painted with black in Fig. 5 is the infarct lesion when ginsenoside Rb1 was administered; and the part shown in gray in Fig. 5 is the infarcted lesion when physiological saline was administered.
Data are represented by mean ± SE. Statistical analyses are conducted by ANOVA + Fisher's PLSD. N = 5.

[14] = test system: SH-SP rats; type: in vivo; conditions: for learning disability in the water maze tests: also 1st day at the 4th week
Protocol: as §1
After MCA permanent occlusion, according to the method of the inventors of the present invention (Sakanaka and Tanaka) (Igase, K. et al., J. Cereb. Blood Flow Metab., 19, 298-306, 1999; Zhang B. et al., J. Stroke Cerebrovasc. Dis., 7, 1-9, 1998), water maze tests were performed for 4 days at the 2nd week and the 4th week, respectively, and the place navigation abilities of SH-SP rats were determined.
Male SH-SP rats, at the age of 12-13 weeks, (stroke-prone spontaneously hypertensive rat: weighing 250 - 300 g), were used. Animals were housed in an air-conditioned room furnished with a 12:12 hour light-dark cycle, and water and feeds were supplied ad libitum. The mean blood pressure of the animals was 203±6.9 mmHg. The following experiments were conducted in accordance with the Guide for Animal Experimentation at Ehime University School of Medicine. The cortical branch of the left middle cerebral artery (MCA) of SH-SP rats were coagulated and cut, while their rectal temperature was maintained at 37±0.2°C under inhalation anesthesia.
Immediately after MCA permanent occlusion, […] of physiological saline containing ginsenoside Rb1 at a concentration of 1µg/µl or 0.1µg/µl (60µg or 6µg as ginsenoside Rb1) was injected once into the left femoral vein. Then a catheter connected to the Alza osmotic minipump implanted subcutaneously in the back of each animal was inserted into the same vein from the point of the single injection of ginsenoside Rb1. Physiological saline containing ginsenoside Rb1 was filled in advance in the said osmotic minipump, and ginsenoside Rb1 in a dose of 60µg/day or 6µg/day was continuously infused into the blood stream through the catheter placed in the left femoral vein for 28 days. Flow rate of the ginsenoside Rb1-containing solution was 0.25µl/hour. Control animals with MCA permanent occlusion (ischemic control animals) and sham-operated animals received the same amount of physiological saline.
After the MCA permanent occlusion according to the method of the inventors of the present invention (Sakanaka and Tanaka) (Igase, K. et al., J. Cereb. Blood Flow Metab., 19, 298-306, 1999; Zhang B. et al., J. Stroke Cerebrovasc. Dis., 7, 1-9, 1998), water maze tests were performed for 4 days at the 2nd week and the 4th week, respectively, and place navigation abilities of the SH-SP rats were determined.

[15] = test system: gerbils; conditions: cited from earlier work
[16] = in vivo, po; cited from earlier work
[17] = test system: apoptosis-like nerve cell death; conditions: 1 fg/ml to 100 fg/ml; cited from earlier work
[18] = 6µg/day intravenous for 28 days after MCA permanent occlusion
[19] = 60µg/day intravenous for 28 days after MCA permanent occlusion

Structure (SMILES): CC(C)=CCC[C@](C)(O[C@@H]1O[C@H](CO[C@@H]2O[C@H](CO)[C@@H](O)[C@H](O)[C@H]2O)[C@@H](O)[C@H](O)[C@H]1O)[C@H]1CC[C@]2(C)[C@@H]1[C@H](O)C[C@@H]1[C@@]3(C)CC[C@H](O[C@@H]4O[C@H](CO)[C@@H](O)[C@H](O)[C@H]4O[C@@H]4O[C@H](CO)[C@@H](O)[C@H](O)[C@H]4O)C(C)(C)[C@@H]3CC[C@]12C [ginsenoside Rb1, Ginsenoside Rb1]
- effect on cerebral infarction ([1]; continuous intracerebroventricular infusion 0.6µg/day after MCA occlusion): significant suppressive effect
- effect on cerebral infarction ([1]; continuous intracerebroventricular infusion 6µg/day or 0.06µg/day after MCA permanent occlusion): no therapeutic effect
- neurotoxicity [2]: increased neurotoxicity
- glutamate-mediated neurotoxicity ([2]; high concentrations (0.11-11 µg/ml)): reduce glutamate-mediated neurotoxicity
- expression of Bcl-XL [3]: increasing the expression
- formation of lipid peroxides ([4]; 100 fg/ml): slightly suppressive action
- formation of lipid peroxides ([4]; lower concentration range than 100 fg/ml): no such effect was observed
- transfer to the central nervous system [5]: transferred rapidly
- adverse effects [6]: No adverse effects were detected
- neuronal necrosis caused by ferrous sulfate [7]: reduces neuronal necrosis
- brain temperature, cerebral blood flow and blood pressure [8]: no effects
- normal metabolic activity of cultured nerve cells [9]: no effect on normal metabolic activity
- SNP-induced injuries ([9]; low extracellular concentrations (1 - 100 fg/ml)): protects only nerve cells against SNP-induced injuries
- motor ability (BBB scores) ([10]; 12µg/day or 60µg/day intravenous, 7th day after spinal cord injuries, dose-dependent): significantly ameliorated
- paraplegia of both hindlimbs ([10]; 60 µg/day intravenous after 20 g compression for 20 minutes, after 2 days): significantly ameliorated
- wound healing of the dorsal skin incision ([10]; rat, in vivo): no such adverse effects were noted
- ratio of cerebrocortical infarction ([11]; 6µg/day or 60µg/day intravenous for 28 days, compared with physiological saline group): significantly reduced
- mean value of the ratio of cerebrocortical infarction compared with that of the physiological saline group ([11]; groups intravenously administered, about 50% or less): ≤ 50%
- actual volume of infarction relative to physiological saline group ([11]; intravenous administration, inferred from the area ratio): about 1/4
- ratio of area (%), left thalamic area to right thalamic area ([12]; 6µg/day intravenous): 95.9 ± 3.3* %
- count of nerve cells ([12]; 6µg/day intravenous): 30.6 ± 2.9**
- ratio of area (%), left thalamic area to right thalamic area ([12]; 60µg/day intravenous): 95.3 ± 2.4* %
- count of nerve cells ([12]; 60µg/day intravenous): 31.5 ± 3.6**
- ratios of the cerebrovascular areas, control side versus ischemic side ([13]; 6µg/day and 60 µg/day intravenous, 28 days after MCA permanent occlusion): no significant difference
- ischemic side (%), ratio of the cerebrovascular area [13, 18]: 8.0 ± 0.58%
- intact side (%), ratio of the cerebrovascular area [13, 18]: 7.0 ± 0.64%
- ischemic side (%), ratio of the cerebrovascular area [13, 19]: 9.0 ± 0.52%
- intact side (%), ratio of the cerebrovascular area [13, 19]: 8.3 ± 0.92%
- place navigation disability after MCA permanent occlusion ([14]; 6µg/day or 60µg/day intravenous, compared with physiological saline group): significantly improved
- learning disability in the water maze tests ([14]; high dose (60µg/day), 4th day at the 2nd week, 3rd and 4th days at the 4th week): significantly ameliorated
- learning disability in the water maze tests ([14]; low dose (6µg/day), 3rd and 4th day at the 2nd and 4th week): significantly ameliorated
- swimming speed of SH-SP rats ([14]; rat, in vivo): No significant differences
- delayed neuronal death and learning disability ([15]; intracerebroventricular infusion starting immediately after 3 or 3.5 minutes carotid occlusion): suppresses the delayed neuronal death and learning disability
- hippocampal CA1 pyramidal neurons rescued ([15]; intraperitoneal 10 mg/kg/day or 20 mg/kg/day before ischemic loading): about 30%
- delayed neuronal death and learning disability ([15]; intraperitoneal 10 or 20 mg/kg/day once a day for one week in advance, 5 minutes carotid occlusion): significantly prevent
- effect of administration after the ischemic insult ([15]; intraperitoneal, after the ischemic insult): no effect
- detection in blood [16]: can not be detected in blood
- apoptosis-like nerve cell death [17]: suppresses apoptosis-like nerve cell death

Reference: patent EP1170012A1, “CEREBROVASCULAR REGENERATION/RECONSTRUCTION PROMOTERS AND NERVE TISSUE SECONDARY DEGENERATION INHIBITORS COMPRISING GINSENOSIDE RB 1?” (priority 1999, dated 2000)
